Measured values as given in ChEMBL document CHEMBL3774323, “Stimulation of cortical bone formation with thienopyrimidine based inhibitors of Notum Pectinacetylesterase” (Bioorg Med Chem Lett, 2016).

Columns and labels:
[1] = biological target: T1, Palmitoleoyl-protein carboxylesterase NOTUM (Homo sapiens, UniProt Q6P988); assay: Inhibition of human notum pectinacetylesterase expressed in 293F cells after 30 mins by TCF/LEF cell sensor assay; type: cell-based
T1 sequence (Q6P988 whole entry): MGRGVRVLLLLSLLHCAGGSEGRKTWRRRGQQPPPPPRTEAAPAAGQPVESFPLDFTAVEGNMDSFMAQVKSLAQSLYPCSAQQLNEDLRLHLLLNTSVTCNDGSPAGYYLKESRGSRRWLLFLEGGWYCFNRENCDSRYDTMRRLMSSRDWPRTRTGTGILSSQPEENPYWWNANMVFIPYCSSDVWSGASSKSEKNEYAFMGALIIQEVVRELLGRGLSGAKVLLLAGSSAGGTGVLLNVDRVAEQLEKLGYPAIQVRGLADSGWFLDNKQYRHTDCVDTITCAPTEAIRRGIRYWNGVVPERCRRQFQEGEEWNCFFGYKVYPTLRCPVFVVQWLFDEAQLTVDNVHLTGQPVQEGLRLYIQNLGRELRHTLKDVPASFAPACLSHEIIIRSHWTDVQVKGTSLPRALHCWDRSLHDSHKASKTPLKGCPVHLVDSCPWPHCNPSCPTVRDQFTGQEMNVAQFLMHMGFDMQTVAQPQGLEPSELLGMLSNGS

[2] = Inhibition of human/mouse notum pectinacetylesterase using OPTS as substrate by fluorimetric assay
[3] = Cmax in mouse at 10 mg/kg, po; type: ADME, organism-based; parameters: dose 10 mg/kg, route oral; settings: in vivo
[4] = biological target: T2, Palmitoleoyl-protein carboxylesterase NOTUM (Mus musculus, UniProt Q8R116); assay: Inhibition of mouse notum pectinacetylesterase expressed in 293F cells after 30 mins by TCF/LEF cell sensor assay; type: cell-based
T2 sequence (Q8R116 whole entry): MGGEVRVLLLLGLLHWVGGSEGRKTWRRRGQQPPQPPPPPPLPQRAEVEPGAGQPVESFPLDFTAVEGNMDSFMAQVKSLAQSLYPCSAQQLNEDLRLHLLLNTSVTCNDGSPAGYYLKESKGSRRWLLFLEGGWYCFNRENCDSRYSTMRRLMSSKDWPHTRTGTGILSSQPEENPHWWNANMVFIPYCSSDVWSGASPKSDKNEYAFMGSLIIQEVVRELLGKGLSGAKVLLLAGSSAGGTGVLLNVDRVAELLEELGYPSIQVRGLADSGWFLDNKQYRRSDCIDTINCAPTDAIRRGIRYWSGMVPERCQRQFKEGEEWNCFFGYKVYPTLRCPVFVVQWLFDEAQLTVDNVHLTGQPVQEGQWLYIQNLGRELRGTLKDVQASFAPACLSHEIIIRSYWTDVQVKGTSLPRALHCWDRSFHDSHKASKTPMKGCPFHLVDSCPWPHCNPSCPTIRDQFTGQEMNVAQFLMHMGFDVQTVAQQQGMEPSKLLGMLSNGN

Mus musculus = assay: Volume of distribution at steady state in mouse at 10 mg/kg, po; type: ADME, organism-based; settings: in vivo
[5] = AUC in mouse at 10 mg/kg, po; type: ADME, organism-based; settings: in vivo
[6] = Oral bioavailability in mouse at 10 mg/kg; type: ADME, organism-based; settings: in vivo
[7] = Clearance in mouse at 10 mg/kg, po; type: ADME, organism-based; settings: in vivo

| SMILES | EC50 [1] [µM] | IC50 [2] [µM] | EC50 [4] [µM] | other results |
| --- | --- | --- | --- | --- |
| Cc1sc2ncnc(SCC(=O)c3ccc(CNC(=O)C(C)C)o3)c2c1C | 0.211 | 0.006 |  |  |
| O=C(O)CSc1ncnc2scnc12 |  | 15 |  |  |
| Cc1sc2ncnc(SCC(=O)O)c2c1Cl | 0.107 |  | 0.409 | Cmax [3]: 157 µM; Vdss (Mus musculus): 0.16 L/kg; AUC [5]: 515 µM·h; bioavailability [6]: 95%; CL/F [7]: 0.0732 L/h/kg |
| O=C(O)CSc1ncnc2ccccc12 |  | 1.2 |  |  |
| Cc1csc2ncnc(SCC(=O)O)c12 |  | 0.092 |  |  |
| Cc1sc2ncnc(SCC(=O)c3c[nH]c(C(=O)N4CCCC4)c3)c2c1C | 0.28 | 0.01 |  |  |
| Cc1c(Br)sc2ncnc(SCC(=O)O)c12 | 0.144 |  | 0.485 |  |
| O=C(O)CSc1ncnc2sc3c(c12)CCCC3 |  | 0.62 |  |  |
| Cc1c(Cl)sc2ncnc(SCC(=O)O)c12 | 0.885 |  | 2.56 |  |
| O=C(O)CSc1ncnc2c(C3CC3)c(C(F)(F)F)sc12 | 0.012 |  | 0.043 |  |
| Cc1sc2ncnc(SCC(=O)c3c[nH]c(CNS(=O)(=O)C4CC4)c3)c2c1C | 0.168 | 0.002 |  |  |
| O=C(O)CSc1ncnc2sccc12 |  | 2.8 |  |  |
| Cc1cc2c(SCC(=O)O)ncnc2s1 |  | 0.152 |  |  |
| Cc1sc2c(SCC(=O)O)ncnc2c1C1CC1 | 0.115 |  | 0.408 |  |
| Cc1sc2ncnc(SCC(N)=O)c2c1C | 0.857 | 0.002 |  |  |
| COC(=O)CSc1ncnc2sc(C)c(C)c12 | 0.445 | 0.002 |  |  |
| CCc1sc2ncnc(SCC(=O)O)c2c1C | 0.835 |  | 2.64 |  |
| CCc1c(C)sc2ncnc(SCC(=O)O)c12 | 21.9 |  | 65.4 |  |
| Cc1c(Cl)sc2c(SCC(=O)O)ncnc12 | 0.435 |  | 1.44 |  |

| SMILES | EC50 [1] [µM] | IC50 [2] [µM] | EC50 [4] [µM] | other results |
| --- | --- | --- | --- | --- |
| CNC(=O)CSc1ncnc2sc(C)c(C)c12 | 0.789 | 0.027 |  |  |
| Cc1sc2ncnc(SCC(=O)O)c2c1C |  | 0.002 | 1.02 |  |
| Cc1sc2c(SCC(=O)O)ncnc2c1C | 0.881 |  | 4.47 |  |
| Cc1sc2ncnc(SCC(=O)O)c2c1Br | 0.208 |  | 0.375 |  |
| CCCc1sc2ncnc(SCC(=O)O)c2c1Cl | 0.088 |  | 0.342 |  |
| Cc1csc2c(SCC(=O)O)ncnc12 |  | 0.193 |  |  |
| Cc1c(Br)sc2c(SCC(=O)O)ncnc12 | 0.417 |  | 1.36 |  |
| Cc1sc2ncnc(SCC(=O)NS(C)(=O)=O)c2c1C | 1.46 | 0.011 |  |  |
| O=C(O)CSc1ncnc2[nH]ccc12 |  | 15 |  |  |
| Cc1sc2c(SCC(=O)O)ncnc2c1Cl | 1.96 |  | 5.51 |  |
| CC(C)c1sc2ncnc(SCC(=O)O)c2c1Cl | 0.477 |  | 0.828 |  |
| Cc1sc2ncnc(SCC(=O)c3ccc(CNC(=O)C4CC4)o3)c2c1C | 0.249 | 0.005 |  |  |
| O=C(O)CSc1ncnc2sc(C3CC3)c(Cl)c12 | 0.25 |  | 1.01 |  |
| O=C(O)CSc1ncnc2c(C3CC3)c(Cl)sc12 |  |  | 0.055 | Vdss (Mus musculus): 0.13 L/kg |
| CCc1sc2ncnc(SCC(=O)O)c2c1Cl | 0.393 |  | 1.44 |  |
| O=C(O)CSc1ncnc2[nH]ncc12 |  | 15 |  |  |
| Cc1sc2ncnc(SCC(=O)NC#N)c2c1C | 0.4 | 0.002 |  |  |
| Cc1sc2ncnc(SCC(=O)NO)c2c1C | 0.556 | 0.002 |  |  |
